Reference: patent US11072581B2, “N-acyl-arylsulfonamide derivatives as aminoacyl-tRNA synthetase inhibitors” (Oxford Drug Design Limited, priority 2015, dated 2021)
Where a name gives a salt, the structure may show the parent alone.

Legend:
Format in all cases: biochemical
Settings in all cases: i.a. = inactive at a concentration below 50 uM
[1] = molecular target: T1, EcoIRS (isoleucyl-tRNA synthetase from Escherichia coli) (Escherichia coli, UniProt P00956); test: aaRS aminoacylation assay (ATP consumption), EcoIRS
T1 construct: made in house; host or cells: Escherichia coli M15
T1 sequence (P00956 whole entry): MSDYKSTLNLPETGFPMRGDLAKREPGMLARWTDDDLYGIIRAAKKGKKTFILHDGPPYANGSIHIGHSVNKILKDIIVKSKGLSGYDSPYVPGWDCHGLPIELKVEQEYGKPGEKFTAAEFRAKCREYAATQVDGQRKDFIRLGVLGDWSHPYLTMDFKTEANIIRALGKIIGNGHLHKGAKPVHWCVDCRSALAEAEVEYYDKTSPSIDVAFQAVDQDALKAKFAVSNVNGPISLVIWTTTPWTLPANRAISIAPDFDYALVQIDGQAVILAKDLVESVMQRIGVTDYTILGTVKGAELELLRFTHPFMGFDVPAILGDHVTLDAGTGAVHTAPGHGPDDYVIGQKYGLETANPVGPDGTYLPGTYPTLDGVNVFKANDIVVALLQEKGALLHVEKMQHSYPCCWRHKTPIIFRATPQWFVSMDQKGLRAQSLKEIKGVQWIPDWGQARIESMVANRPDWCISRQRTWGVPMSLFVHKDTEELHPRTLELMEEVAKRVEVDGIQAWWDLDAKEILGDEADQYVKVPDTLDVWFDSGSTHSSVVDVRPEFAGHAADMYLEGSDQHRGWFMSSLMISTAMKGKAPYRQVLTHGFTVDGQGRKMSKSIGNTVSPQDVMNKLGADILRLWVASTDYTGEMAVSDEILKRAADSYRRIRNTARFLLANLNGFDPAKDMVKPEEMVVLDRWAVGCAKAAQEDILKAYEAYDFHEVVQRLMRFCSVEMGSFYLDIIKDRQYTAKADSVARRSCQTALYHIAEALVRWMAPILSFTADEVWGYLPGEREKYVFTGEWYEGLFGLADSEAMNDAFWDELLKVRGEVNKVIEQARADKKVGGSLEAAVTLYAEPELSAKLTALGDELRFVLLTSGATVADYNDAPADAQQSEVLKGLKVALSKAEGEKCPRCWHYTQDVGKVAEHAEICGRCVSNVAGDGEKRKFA
Method: (§1) The compounds have been tested for antibacterial activity in vitro as aminoacyl-tRNA synthetases (aaRS) inhibitors following the following process.
(§2) Leucyl-, valyl- and isoleucyl-tRNA synthetases (LRS, VRS and IRS, respectively) from Escherichia coli (Eco) and Staphylococcus aureus (Sau).
(§3) Escherichia coli M15 cells transformed with plasmid pQE-60, or pQE-70, containing the open-reading frame sequence of one targeted aaRS were induced with 1 mM IPTG (Isopropyl β-D-1-thiogalactopyranoside) for 3 h at 37° C. Bacterial cells were harvested and lysed with 20 mM NaH2PO4 (pH 8.0), 200 mM NaCl, 10 mM imidazole and protease inhibitor cocktail (Roche). Pathogenic aaRS was purified by nickel affinity standard chromatography. Protein concentration was determined by spectrophotometry.
(§4) tRNA^Leu, tRNA^Val and tRNA^Ile from E. coli and S. aureus were transcribed in vitro for 4 h at 37° C. using T7 RNA polymerase. Transcription reaction contained 40 mM Tris-HCl (pH 8.0), 22 mM MgCl2, 1 mM spermidine, 5 mM DTT, 0.01% Triton X-100, 4 mM GTP, 4 mM ATP, 4 mM UTP, 4 mM CTP, 16 mM GMP, […] T7 RNA polymerase and 150 μg BstNI digested plasmid. Once finished, the reaction was applied on a 6% polyacrylamide-8 M urea denaturing gel to purify the transcribed tRNA and discard any impurities. Purified tRNA was quantified with Nanodrop 2000 (Thermo Scientific).
(§5) The aminoacylation reaction catalyzed by aminoacyl-tRNA synthetases (aaRS) takes place in two steps. In the first step, aaRS activates its cognate amino acid with ATP; and in the second step the activated amino acid is loaded to its corresponding tRNA. This reaction can be summarized as follows: ARS+aa+ATP=ARS-aa-AMP+PPi ARS-aa-AMP+tRNA=aa-tRNA+AMP+ARS [2] (ARS, Aminoacyl-tRNA synthetase; aa, amino acid; ARS-aa-AMP, enzyme-bound to aminoacyl-adenylate; aa-tRNA, aminoacyl-tRNA).
(§6) The activity of the pathogenic aaRSs was monitored by measuring the ATP consumption rate, since this consumption is directly proportional to the activity of the aaRS. If the tested compound, at a single point concentration of 50 μM, is inhibiting the aminoacylation reaction, there is a decrease in the ATP consumption, compared to the control reaction without compound, allowing the calculation of an inhibition ratio.
(§7) When the inhibition ratio for a given compound was above 80%, IC50 determination was performed with the same enzymatic assay (using the commercial kit Kinase RR from BioThema AB, Sweden) in the presence of serial dilutions of inhibitor. Known inhibitors of LRS, VRS or IRS were used as a positive control of the assay. The IC50 was calculated based on nonlinear regression analysis.

[2] = molecular target: T2, SauIRS (isoleucyl-tRNA synthetase from Staphylococcus aureus) (Staphylococcus aureus, UniProt P41972); test: aaRS aminoacylation assay (ATP consumption), SauIRS
T2 construct: made in house; host or cells: Escherichia coli M15
T2 sequence (P41972 1-917): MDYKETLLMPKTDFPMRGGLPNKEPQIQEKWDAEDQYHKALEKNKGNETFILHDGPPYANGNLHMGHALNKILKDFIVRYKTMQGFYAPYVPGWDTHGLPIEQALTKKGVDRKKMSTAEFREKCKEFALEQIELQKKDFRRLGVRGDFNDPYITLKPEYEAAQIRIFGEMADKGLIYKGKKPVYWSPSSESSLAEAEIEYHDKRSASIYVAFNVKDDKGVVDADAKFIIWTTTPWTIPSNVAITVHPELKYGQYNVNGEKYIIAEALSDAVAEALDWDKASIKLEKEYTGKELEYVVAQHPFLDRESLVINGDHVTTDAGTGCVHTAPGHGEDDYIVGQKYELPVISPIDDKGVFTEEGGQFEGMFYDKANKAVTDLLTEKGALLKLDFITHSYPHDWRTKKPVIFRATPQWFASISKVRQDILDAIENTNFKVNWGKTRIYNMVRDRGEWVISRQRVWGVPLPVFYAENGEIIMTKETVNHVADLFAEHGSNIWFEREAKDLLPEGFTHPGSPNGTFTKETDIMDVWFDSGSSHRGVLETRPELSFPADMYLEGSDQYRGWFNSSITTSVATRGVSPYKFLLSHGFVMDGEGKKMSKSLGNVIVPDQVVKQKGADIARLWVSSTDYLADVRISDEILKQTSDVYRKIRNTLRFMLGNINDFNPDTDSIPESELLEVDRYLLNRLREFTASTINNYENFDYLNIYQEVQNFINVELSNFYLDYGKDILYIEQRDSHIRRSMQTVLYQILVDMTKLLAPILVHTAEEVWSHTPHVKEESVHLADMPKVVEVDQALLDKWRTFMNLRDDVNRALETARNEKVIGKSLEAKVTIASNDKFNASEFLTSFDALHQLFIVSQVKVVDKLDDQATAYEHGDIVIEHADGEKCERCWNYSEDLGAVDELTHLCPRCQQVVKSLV
Method: as §1, §2, §3, §4, §5, §6, §7

[3] = molecular target: T3, SauVRS (valyl-tRNA synthetase from Staphylococcus aureus) (Staphylococcus aureus, UniProt Q2FXR8); test: aaRS aminoacylation assay (ATP consumption), SauVRS
T3 construct: made in house; host or cells: Escherichia coli M15
T3 sequence (Q2FXR8 1-876): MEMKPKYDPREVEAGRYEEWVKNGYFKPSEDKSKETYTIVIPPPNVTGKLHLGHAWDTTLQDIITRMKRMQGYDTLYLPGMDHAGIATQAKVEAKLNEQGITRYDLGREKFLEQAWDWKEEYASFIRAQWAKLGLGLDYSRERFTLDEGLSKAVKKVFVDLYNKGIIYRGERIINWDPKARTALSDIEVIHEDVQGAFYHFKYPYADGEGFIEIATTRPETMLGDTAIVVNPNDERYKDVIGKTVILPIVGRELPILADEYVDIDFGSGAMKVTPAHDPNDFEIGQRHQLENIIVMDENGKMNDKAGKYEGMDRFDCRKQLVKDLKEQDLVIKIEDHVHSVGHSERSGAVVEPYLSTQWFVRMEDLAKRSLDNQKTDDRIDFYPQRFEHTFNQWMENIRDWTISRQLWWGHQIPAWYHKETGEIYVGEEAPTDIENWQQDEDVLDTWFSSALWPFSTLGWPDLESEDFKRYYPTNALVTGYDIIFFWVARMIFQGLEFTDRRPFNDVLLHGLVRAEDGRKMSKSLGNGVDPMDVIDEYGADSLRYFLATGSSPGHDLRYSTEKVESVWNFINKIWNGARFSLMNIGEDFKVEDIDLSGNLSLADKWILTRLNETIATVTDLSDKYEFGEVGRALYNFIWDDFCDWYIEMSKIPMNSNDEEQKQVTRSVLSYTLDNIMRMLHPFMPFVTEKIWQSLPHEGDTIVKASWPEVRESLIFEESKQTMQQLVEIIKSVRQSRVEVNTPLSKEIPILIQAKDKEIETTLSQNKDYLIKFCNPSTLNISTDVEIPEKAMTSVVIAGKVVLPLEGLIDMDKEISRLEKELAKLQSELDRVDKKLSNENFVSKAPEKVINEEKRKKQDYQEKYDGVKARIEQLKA
Method: as §1, §2, §3, §4, §5, §6, §7

CC(C)C[C@H](N)C(=O)NS(=O)(=O)c1ccc(-c2ccccc2)cc1 [Compound 5.11]
i.a: IC50 EcoIRS [1] | IC50 SauIRS [2] | IC50 SauVRS [3]

CC(C)C[C@H](N)C(=O)NS(=O)(=O)c1c(C(C)C)cc(C(C)C)cc1C(C)C [Compound 5.12]
i.a: IC50 EcoIRS [1] | IC50 SauIRS [2] | IC50 SauVRS [3]

CC(C)C[C@H](N)C(=O)NS(=O)(=O)c1cccc2ccccc12 [Compound 5.13]
i.a: IC50 EcoIRS [1] | IC50 SauIRS [2] | IC50 SauVRS [3]

CC(C)C[C@H](N)C(=O)NS(=O)(=O)c1ccc2ccccc2c1 [Compound 5.14]
i.a: IC50 EcoIRS [1] | IC50 SauIRS [2] | IC50 SauVRS [3]

CC[C@H](C)[C@H](N)C(=O)NS(=O)(=O)c1ccc2ccccc2c1 [Compound 5.15]
i.a: IC50 EcoIRS [1] | IC50 SauIRS [2] | IC50 SauVRS [3]

CC(C)C[C@H](N)C(=O)NS(=O)(=O)c1cccc2c(N(C)C)cccc12 [Compound 5.16, (S)-2-amino-N-((5-(dimethylamino)naphthalen-1-yl)sulfonyl)-4-methylpentanamide hydrochloride]
i.a: IC50 EcoIRS [1] | IC50 SauIRS [2] | IC50 SauVRS [3]

COc1ccc2cc(S(=O)(=O)NC(=O)[C@@H](N)CC(C)C)ccc2c1 [Compound 5.17]
i.a: IC50 EcoIRS [1] | IC50 SauIRS [2] | IC50 SauVRS [3]

CC(C)C[C@H](N)C(=O)NS(=O)(=O)c1cccc2cccnc12 [Compound 5.19]
i.a: IC50 EcoIRS [1] | IC50 SauIRS [2] | IC50 SauVRS [3]

CC(C)C[C@H](N)C(=O)NS(=O)(=O)c1cccc2ccncc12 [Compound 5.21]
i.a: IC50 EcoIRS [1] | IC50 SauIRS [2] | IC50 SauVRS [3]

CC(C)C[C@H](N)C(=O)NS(=O)(=O)c1ccc(Br)c2ccncc12 [Compound 5.22, trifluoroacetate]
i.a: IC50 EcoIRS [1] | IC50 SauIRS [2] | IC50 SauVRS [3]

CC(C)C[C@H](N)C(=O)NS(=O)(=O)c1cccc2cc(C(N)=O)ncc12 [Compound 5.24, 8-(N-(L-Leucyl)sulfamoyl)isoquinoline-3-carboxamide]
i.a: IC50 EcoIRS [1] | IC50 SauIRS [2] | IC50 SauVRS [3]

CC(C)C[C@H](N)C(=O)NS(=O)(=O)c1cccc2c1OCCC2 [Compound 5.25]
i.a: IC50 EcoIRS [1] | IC50 SauIRS [2] | IC50 SauVRS [3]

CC(C)C[C@H](N)C(=O)NS(=O)(=O)c1cccc2c1CNCC2 [Compound 5.26, (S)-2-amino-4-methyl-N-((1,2,3,4-tetrahydroisoquinolin-8-yl)sulfonyl) pentanamide trifluoroacetate]
i.a: IC50 EcoIRS [1] | IC50 SauIRS [2] | IC50 SauVRS [3]

CNc1cc(-c2cccc(S(=O)(=O)NC(=O)[C@@H](N)CC(C)C)c2)nc(N)n1 [Compound 5.27]
i.a: IC50 EcoIRS [1] | IC50 SauIRS [2] | IC50 SauVRS [3]

CC(C)C[C@H](N)C(=O)NS(=O)(=O)c1cccc(-c2cc(N(C)C)nc(N)n2)c1 [Compound 5.28]
i.a: IC50 EcoIRS [1] | IC50 SauIRS [2] | IC50 SauVRS [3]

CSc1cc(-c2cccc(S(=O)(=O)NC(=O)[C@@H](N)CC(C)C)c2)nc(N)n1 [Compound 5.29]
i.a: IC50 EcoIRS [1] | IC50 SauIRS [2] | IC50 SauVRS [3]

Cc1cc(-c2cccc(S(=O)(=O)NC(=O)[C@@H](N)CC3CC3)c2)nc(N)n1 [Compound 5.30]
i.a: IC50 EcoIRS [1] | IC50 SauIRS [2] | IC50 SauVRS [3]

Cc1cc(-c2cccc(S(=O)(=O)NC(=O)[C@@H](N)CC3CCC3)c2)nc(N)n1 [Compound 5.31]
i.a: IC50 EcoIRS [1] | IC50 SauIRS [2] | IC50 SauVRS [3]

Cc1cc(-c2cccc(S(=O)(=O)NC(=O)[C@@H](N)C3CC3)c2)nc(N)n1 [Compound 5.33]
i.a: IC50 EcoIRS [1] | IC50 SauIRS [2] | IC50 SauVRS [3]

Cc1cc(-c2cccc(S(=O)(=O)NC(=O)[C@@H](N)CC3CCCCC3)c2)nc(N)n1 [Compound 5.34]
i.a: IC50 EcoIRS [1] | IC50 SauIRS [2] | IC50 SauVRS [3]
